Experimental findings from ChEMBL document CHEMBL5380860, “Design, Synthesis, and Antitumor Activity of Potent and Selective EGFR L858R/T790M Inhibitors and Identification of a Combination Therapy to Overcome Acquired Resistance in Models of Non-small-cell Lung Cancer” (J Med Chem, 2023) are described below.

The species entered for data set [1] is Mus musculus. The note with it: BALB/c, dose 10.0 mg/kg/day, route po.
A short description of data set [2]: Half life in Sprague-Dawley rat at 1 mg/kg, iv by LC-MS analysis. Type of data set: ADME, organism-based. The note with it: in vivo.
Data set [3] concerns NCI-H1975. The data set can be described thus: Antiproliferative activity against human NCI-H1975 cells harboring EGFR L858R/T790M mutant assessed as reduction in cell viability measured after 72 hrs by MTT assay. The class given is functional, cell-based. The following applies: NCI-H1975, 72 h. For orientation: Tetrazolium dyes change colour on reduction, which living cells bring about.

Data set [4] relates to Mus musculus. Kind of data set: In vivo inhibition of EGFR L858R/T790M mutant in NCI-H1975 cells xenografted BALB/c mouse assessed as inhibition of AKT phosphorylation at Ser473 residue in tumor at 20 mg/kg/day, ip by immunoblot analysis. Type of data set: functional, organism-based. On the technique in general: Immunoblotting shows a protein as a band on a membrane.
The test system of data set [5] is Mus musculus. Kind of data set: In vivo inhibition of EGFR L858R/T790M mutant in ip dosed NCI-H1975 cells xenografted BALB/c mouse assessed as inhibition of AKT phosphorylation at Ser473 residue in tumor by immunoblot analysis. The note with it: dose 5-20 mg/kg/day. Type of data set: functional, organism-based.
The subject of data set [6] is A549. The data set can be described thus: Inhibition of clonogenicity in human A549 cells assessed as inhibition of colony formation at 0.1 to 10 uM incubated for 14 days by crystal violet staining based analysis. The class given is toxicity, cell-based. The following applies: a549, 336 h, dose 0.1-10 µM, time 14 day.
Data set [7] concerns Epidermal growth factor receptor (Homo sapiens), P00533 [L858R,T790M]. Kind of data set: Covalent binding affinity to EGFR L858R/T790M mutant (unknown origin) assessed as enzyme-compound complex formation at protein to compound concentration ratio of 1:4 incubated for 1 hr by LC-MS analysis.
For data set [8], the target named is wild type EGFR (Homo sapiens, UniProt P00533). The data set can be described thus: Inhibition of human wild type partial length EGFR (R669 to V1011 residues) expressed in bacterial expression system assessed as residual activity at 1 uM by KINOMEscan analysis. Type of data set: toxicity. The note with it: read-out: Activity.
In data set [9] the test system is Mus musculus. Kind of data set: In vivo inhibition of EGFR L858R/T790M mutant in NCI-H1975 cells xenografted BALB/c mouse assessed as inhibition of AKT phosphorylation at Ser473 residue at 5 to 20 mg/kg/day, ip in tumor by immunohistochemistry. The class given is functional, organism-based. The following applies: dose 5-20 mg/kg/day.
Data set [10] relates to NCI-H1975. The data set can be described thus: Antitumor activity against N-(3-((6-Fluoro-2-((4-(4-methylpiperazin-1-yl)phenyl)amino)quinazolin-4-yl)amino)phenyl)acrylamide-resistant human NCI-H1975 cells xenografted in BALB/c mouse assessed as inhibition of tumor growth at 20 mg/kg/day, ip. Type of data set: functional, organism-based. A general note: A xenograft is tissue or cells of one species grown in another, often human tumour cells in immunodeficient mice.

The target of data set [11] is Epidermal growth factor receptor (Homo sapiens, UniProt P00533, L858R). Kind of data set: Inhibition of human partial length EGFR (R669 to V1011 residues) L858R mutant expressed in bacterial expression system by KINOMEscan analysis.
Data set [12] deals with Epidermal growth factor receptor (Homo sapiens), P00533 [L858R,T790M]. The data set can be described thus: Inhibition of EGFR L858R/T790M mutant in N-(3-((6-Fluoro-2-((4-(4-methylpiperazin-1-yl)phenyl)amino)quinazolin-4-yl)amino)phenyl)acrylamide-resistant human NCI-H1975 cells assessed as inhibition of EGF-induced EGFR phosphorylation at Tyr1068 residue pretreated with compound for 4 hrs followed by incubation with EGF for 10 mins by western blot analysis. Type of data set: cell-based. The note with it: time 250.0 min.

The test system of data set [13] is A-431. Kind of data set: Induction of apoptosis in human A-431 cells assessed as induction of PARP cleavage at 0.1 to 10 uM pretreated with compound for 4 hrs followed by incubation with EGF for 10 mins by western blot analysis. Type of data set: toxicity, cell-based. The following applies: a-431, 4.167 h, dose 0.1-10 µM, time 250 min.
For data set [14], the system named is NCI-H1975. Kind of data set: Antitumor activity against human NCI-H1975 cells xenografted in ip dosed BALB/c mouse assessed as decrease in tumor volume. Type of data set: functional, organism-based. The note with it: dose 5-20 mg/kg/day.
Data set [15] concerns Epidermal growth factor receptor (Homo sapiens), P00533 [UNDEFINED MUTATION]. The data set can be described thus: Inhibition of EGFR exon del19 mutant in human HCC827 cells assessed as inhibition of EGF-induced EGFR phosphorylation at Tyr1068 residue at 1 uM pretreated with compound for 4 hrs followed by incubation with EGF for 10 mins by western blot analysis. The class given is cell-based. The following applies: time 250.0 min.

The subject of data set [16] is A549. The data set can be described thus: Induction of apoptosis in human A549 cells assessed as induction of PARP cleavage at 0.1 to 10 uM pretreated with compound for 4 hrs followed by incubation with EGF for 10 mins by western blot analysis. The class given is toxicity, cell-based. The note with it: a549, 4.167 h, dose 0.1-10 µM, time 250 min.
The subject of data set [17] is NCI-H1975. Kind of data set: Synergistic antiproliferative activity against N-(3-((6-Fluoro-2-((4-(4-methylpiperazin-1-yl)phenyl)amino)quinazolin-4-yl)amino)phenyl)acrylamide-resistant human NCI-H1975 cells assessed as combination index measured after 72 hrs in presence of ACK1 inhibitor, AIM100 by MTT assay. Type of data set: functional.
The test system of data set [18] is A549. Kind of data set: Induction of apoptosis in human A549 cells assessed as increase in caspase-3/7 activity at 0.1 to 10 uM incubated for 24 hrs by Caspase-Glo reagent based luminescence analysis. The class given is toxicity, cell-based. The note with it: a549, 24 h, dose 0.1-10 µM.
Data set [19] deals with A-431. Kind of data set: Induction of apoptosis in human A-431 cells assessed as induction of caspase-3 cleavage at 0.1 to 10 uM pretreated with compound for 4 hrs followed by incubation with EGF for 10 mins by western blot analysis. Type of data set: toxicity, cell-based. The note with it: a-431, 4.167 h, dose 0.1-10 µM, time 250 min.
Data set [20] in a line: Toxicity in BALB/c mouse xenografted with N-(3-((6-Fluoro-2-((4-(4-methylpiperazin-1-yl)phenyl)amino)quinazolin-4-yl)amino)phenyl)acrylamide-resistant human NCI-H1975 cells assessed as changes in spleen morphological changes at 20 mg/kg/day, ip in presence of ACK1 inhibitor, dasatinib by hematoxylin-eosin staining based analysis. The class given is organism-based. The note with it: in vivo.

Data set [21] is described as follows: Covalent binding affinity to L-cysteine assessed as increase in 619.2 Da mass at L-cysteine to compound concentration ratio of 1:4 incubated for 8 hrs by LC-MS analysis.
For data set [22], the system named is NCI-H1975. Kind of data set: Induction of apoptosis in human NCI-H1975 cells assessed as induction of caspase-3 cleavage pretreated with compound for 4 hrs followed by incubation with EGF for 10 mins by western blot analysis. Type of data set: functional, cell-based. The note with it: dose 0.1-10 µM, time 250.0 min.
Data set [23] concerns HCC827. The data set can be described thus: Induction of apoptosis in human HCC827 cells assessed as increase in caspase-3/7 activity at 0.1 to 10 uM incubated for 24 hrs by Caspase-Glo reagent based luminescence analysis. Type of data set: functional, cell-based. The following applies: dose 0.1-10 µM.
In data set [24] the test system is Mus musculus. Kind of data set: In vivo inhibition of EGFR L858R/T790M mutant in N-(3-((6-Fluoro-2-((4-(4-methylpiperazin-1-yl)phenyl)amino)quinazolin-4-yl)amino)phenyl)acrylamide-resistant human NCI-H1975 cells xenografted BALB/c mouse assessed as inhibition of EGFR phosphorylation at Tyr1068 residue in tumor at 20 mg/kg/day, ip in presence of ACK1 inhibitor, dasatinib by immunoblot analysis. Type of data set: functional, organism-based.

Data set [25] deals with Epidermal growth factor receptor (Homo sapiens), P00533 [L858R,T790M]. The data set can be described thus: Inhibition of EGFR L858R/T790M mutant in human NCI-H1975 cells assessed as inhibition of EGF-induced EGFR phosphorylation at Tyr1068 residue at 1 uM pretreated with compound for 4 hrs followed by incubation with EGF for 10 mins by western blot analysis. Type of data set: cell-based. The following applies: time 250.0 min.

Data set [26] deals with Proto-oncogene tyrosine-protein kinase Src (Homo sapiens, UniProt P12931). The data set can be described thus: Inhibition of human wild type partial length Src kinase (L240 to L536 residues) expressed in bacterial expression system by KINOMEscan analysis.

Activity calls are given as the source filed them. No cut-off for these calls is given here. Some results are limits rather than exact numbers.

Sequence of Proto-oncogene tyrosine-protein kinase Src (P12931 2-536 limits assumed): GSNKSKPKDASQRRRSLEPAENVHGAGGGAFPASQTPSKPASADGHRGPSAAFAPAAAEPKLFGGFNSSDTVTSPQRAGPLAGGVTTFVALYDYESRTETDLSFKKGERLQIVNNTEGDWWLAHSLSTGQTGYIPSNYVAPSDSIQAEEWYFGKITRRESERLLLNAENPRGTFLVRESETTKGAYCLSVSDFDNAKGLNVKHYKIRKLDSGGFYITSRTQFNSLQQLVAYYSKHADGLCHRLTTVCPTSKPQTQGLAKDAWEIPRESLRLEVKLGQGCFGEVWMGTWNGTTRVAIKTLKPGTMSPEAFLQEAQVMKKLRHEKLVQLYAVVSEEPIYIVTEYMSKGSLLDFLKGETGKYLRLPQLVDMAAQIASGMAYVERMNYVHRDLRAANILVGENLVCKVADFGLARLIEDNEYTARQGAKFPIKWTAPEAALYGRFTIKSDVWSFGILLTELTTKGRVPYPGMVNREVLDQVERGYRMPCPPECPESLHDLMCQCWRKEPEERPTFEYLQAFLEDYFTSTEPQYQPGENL

As for `C=CC(=O)Nc1cc(Nc2nccc(-c3cn(C)c4ccccc34)n2)c(OC)cc1N(C)CCN(C)C` [OSIMERTINIB], in data set [1], the inhibition result was “Active”.
Broadly, the half-life is the time in which the quantity being followed falls by half. As a reminder, the IC50 is the concentration needed to halve the response being measured. `C=CC(=O)Nc1cccc(Nc2nc(Nc3ccc(N4CCN(C)CC4)cc3)nc3ccc(F)cc23)c1` showed a half-life in data set [2] of 1.76 h. In addition, the IC50 was determined as 19 nM in data set [3], 2.1 nM in data set [11] and 603 nM in data set [26]. Also, the inhibition entry in data set [4], in data set [9], in data set [12], in data set [15], in [24] and in data set [25] was “Active” each time. In addition, the inhibition entry in data set [5] is “Dose-Dependent Effect”. For the same compound, the Activity entry is “Non-Toxic” in data set [6]; “Non-Toxic” in [13]; “Dose-Dependent Effect” in data set [14]; “Non-Toxic” in data set [16]; “Non-Toxic” in data set [18]; “Non-Toxic” in [19]. For the same compound, the Activity result in data set [20] was “Non-Toxic”; in data set [22] it was “Dose-Dependent Effect”. Further, the Activity entry in [7], in data set [21] and in [23] was “Active” throughout. In addition, the activity at 1 µM in data set [8] worked out at 96%. In addition, the Activity entry in data set [10] is “inactive”. For the same compound, the CI in [17] is below 2.
